Tests used:
EGFR^WT = target: T1, EGFR^WT (Homo sapiens, UniProt P00533); assay: FRET-based Z'-Lyte kinase assay, EGFR WT; format: biochemical; details: AV ± SD; 1.5 h incubation
T1 construct: purchased Invitrogen
Experimental: (§1) The kinase activity assay was performed and optimized according to the instructions of Z’‐LYTE™ kinase assay kits from the manufacturer (PV4879, Life, America). In our experiments, 10 concentration gradients from 0.01 nmol/L to 1.0 μmol/L were used for all the compounds.

EGFR^L858R = target: T2, EGFR^L858R (Homo sapiens, UniProt P00533, L858R); assay: FRET-based Z'-Lyte kinase assay, EGFR L858R; format: biochemical; details: AV ± SD; 1.5 h incubation
T2 construct: purchased Invitrogen
Experimental: as §1

[1] = test system: HCC827 (EGFR^del 19) cells; assay: CCK-8 cell growth assay, HCC827; format: cell-based; details: Homo sapiens, HCC827; CCK-8, 72 h; AV ± SD; read-out: antiproliferative IC50 HCC827
Experimental: (§2) Cells were seeded into 96‐well plates at a density of 1500~3000/well in complete medium overnight. Then, cells were treated with various concentrations (0.01~1000 nmol/L) of YL143 for additional 3 days. Viable cell numbers were determined by Cell Counting Kit 8 (CCK8, CK04, Dojindo Laboratories, Japan). Each assay consisted of three replicate wells and repeated at least three times. […] Each IC50 value was expressed as mean ± SD.

BaF3 = assay: CCK-8 assay, BaF3 cells; format: cell-based; details: Mus musculus, AV±SD, read-out: anti-proliferative activity BaF3
Experimental: as §2
The anti-proliferative activities of the compounds were evaluated using CCK-8 assay. The data were means from at least four independent experiments.

AKT1 = AKT1 (Homo sapiens, UniProt P31749); assay: Z'-Lyte kinase panel, AKT1; format: biochemical; details: 1.5 hrs incubation
Experimental: (§3) Kinase activity assays were performed using the FRET-based Z′-Lyte assay according to the manufacturer’s instructions. The compounds were incubated with the kinase reaction mixture for 1.5 hrs before measurement. The data are means from two independent experiments and the variations are below 20%.

CSF1R = CSF1R (Homo sapiens, UniProt P07333); assay: Z'-Lyte kinase panel, CSF1R; format: biochemical; details: 1.5 hrs incubation
Experimental: as §3

Abl = Abl (Homo sapiens, UniProt P00519); assay: Z'-Lyte kinase panel, Abl; format: biochemical; details: 1.5 hrs incubation
Experimental: as §3

H1975 cells = assay: Cell cycle analysis by flow cytometry (propidium iodide); format: cell-based, human
Experimental: The effect of YL143 to induce cell cycle arrest and apoptosis in H1975 cells was investigated by flow cytometry analysis. […] Treatment with 300 nmol/L of YL143 for 48 h led to 82.11% G0/G1 phase arrest and 34.1% apoptosis. […] (Fig. 3C).
Figure 3 YL143 induces G0/G1 cell cycle arrest and apoptosis in H1975 cells. (A) YL143 induces G0/G1 cell cycle arrest in H1975 cells H1975 cells were treated with 3, 30 or 300 nmol/L for 48 h before DNA labeling by propidium iodide and cell cycle analysis by flow cytometry. (B) YL143 induces apoptosis in H1975 cells. H1975 cells were treated with 3, 30 or 300 nmol/L for 48 h before DNA labeling by Annexin V and 7‐AAD and cell apoptosis analysis by flow cytometry. (C) The effect of YL143 on the expression of CDK4, Cyclin D2, CDK2, Cyclin E, Caspase‐9 and Caspase‐3 was tested by western blotting. The cells were treated with YL143 from 3 to 300 nmol/L for 48 h. Representative results are shown and similar results were obtained in three other independent trials. […]

[2] = test system: EGFR signal pathway in A431 cells; assay: Western blot of EGFR signaling in A431 cells; format: cell-based; details: compared with H1975
Experimental: (§4) Cells were treated with various concentrations of compound for designed time. Then, cells were lysed using 1 × SDS sample lysis buffer (CST recommended) with protease and phosphatase inhibitors. Cell lysates were loaded and electrophoresed onto 8–12% SDS‐PAGE gel, and then, separated proteins were transferred to a PVDF film. The film was blocked with 5% fat‐free milk in TBS solution containing 0.5% Tween‐20 for 4 h at room temperature and then incubated with corresponding primary antibody (1:1000–1:200) overnight at 4°C. After washing with TBST, HRP‐conjugated secondary antibody was incubated for 2 h. And the protein signals were visualized by ECL Western Blotting Detection Kit (Thermo Scientific, Waltham, MA) and detected with Amersham Imager 600 system (GE, America).
The selective EGFR ^L858R/T790M inhibition of YL143 was investigated in H1975, HCC827, A549, and A431 cancer cells harboring different statuses of EGFR by Western blotting analysis (Fig. 2A).

EGFR^L858R/T790M = EGFR^L858R/T790M (Homo sapiens, UniProt P00533, L858R/T790M); assay: Compound washout assay on H1975 cells (Western blot); format: cell-based; details: 100 nmol/L for 4 h, then washout, 24 h
Experimental: as §4
Cells were treated with or without compound YL143 for 4 h at indicated concentration, respectively. Cells were harvested for Western blot analysis. […] NCI‐H1975 cells were treated with or without compound YL143(100 nmol/L) for 4 h, and then the medium with compound was removed and fresh medium was added. At the indicated time points, cells were harvest and proteins were extracted and subjected to Western blot analysis.

Sequence of Abl (P00519 whole entry, species assumed): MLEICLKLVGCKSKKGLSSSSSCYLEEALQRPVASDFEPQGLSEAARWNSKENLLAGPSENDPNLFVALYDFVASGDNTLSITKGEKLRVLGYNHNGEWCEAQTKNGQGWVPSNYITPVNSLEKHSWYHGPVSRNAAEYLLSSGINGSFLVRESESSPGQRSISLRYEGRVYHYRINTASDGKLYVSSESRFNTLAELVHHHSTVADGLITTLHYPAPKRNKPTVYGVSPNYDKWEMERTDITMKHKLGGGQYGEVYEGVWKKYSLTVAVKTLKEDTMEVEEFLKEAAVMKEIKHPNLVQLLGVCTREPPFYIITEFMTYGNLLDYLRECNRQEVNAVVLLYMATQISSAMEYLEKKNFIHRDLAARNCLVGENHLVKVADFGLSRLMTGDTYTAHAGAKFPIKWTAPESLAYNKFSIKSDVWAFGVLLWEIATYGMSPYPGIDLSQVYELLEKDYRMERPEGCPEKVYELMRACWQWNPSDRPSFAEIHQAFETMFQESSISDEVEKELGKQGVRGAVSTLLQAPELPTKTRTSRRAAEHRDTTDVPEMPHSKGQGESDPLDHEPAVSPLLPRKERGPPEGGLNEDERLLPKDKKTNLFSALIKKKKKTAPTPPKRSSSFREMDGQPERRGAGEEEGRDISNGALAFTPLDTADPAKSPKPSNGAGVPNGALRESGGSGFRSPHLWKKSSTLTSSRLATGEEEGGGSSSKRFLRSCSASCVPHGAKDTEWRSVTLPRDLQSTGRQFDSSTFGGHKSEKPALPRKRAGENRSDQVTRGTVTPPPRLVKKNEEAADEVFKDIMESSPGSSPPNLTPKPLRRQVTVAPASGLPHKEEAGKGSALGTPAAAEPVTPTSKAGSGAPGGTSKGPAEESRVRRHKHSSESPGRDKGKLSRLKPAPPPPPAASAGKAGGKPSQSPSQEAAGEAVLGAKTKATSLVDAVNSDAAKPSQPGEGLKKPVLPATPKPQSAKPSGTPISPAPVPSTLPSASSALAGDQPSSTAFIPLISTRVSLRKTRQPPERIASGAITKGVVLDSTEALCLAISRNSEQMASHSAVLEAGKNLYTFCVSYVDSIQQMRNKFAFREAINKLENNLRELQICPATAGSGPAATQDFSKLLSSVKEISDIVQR
Sequence of AKT1 (P31749 whole entry, species assumed): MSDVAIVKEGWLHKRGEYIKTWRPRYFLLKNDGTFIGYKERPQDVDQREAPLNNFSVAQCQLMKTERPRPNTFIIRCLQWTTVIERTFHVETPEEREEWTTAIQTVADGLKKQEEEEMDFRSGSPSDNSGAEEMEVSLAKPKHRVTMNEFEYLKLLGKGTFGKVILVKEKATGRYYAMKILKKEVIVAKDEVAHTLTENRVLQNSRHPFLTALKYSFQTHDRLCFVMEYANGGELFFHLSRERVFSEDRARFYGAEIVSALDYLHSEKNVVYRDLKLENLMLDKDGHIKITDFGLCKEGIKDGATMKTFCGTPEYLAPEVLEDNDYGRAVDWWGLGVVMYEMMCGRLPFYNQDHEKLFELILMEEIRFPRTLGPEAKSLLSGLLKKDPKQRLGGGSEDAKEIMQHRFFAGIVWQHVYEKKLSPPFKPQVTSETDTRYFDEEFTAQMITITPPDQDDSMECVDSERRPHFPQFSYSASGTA
Sequence of CSF1R (P07333 20-972, species assumed): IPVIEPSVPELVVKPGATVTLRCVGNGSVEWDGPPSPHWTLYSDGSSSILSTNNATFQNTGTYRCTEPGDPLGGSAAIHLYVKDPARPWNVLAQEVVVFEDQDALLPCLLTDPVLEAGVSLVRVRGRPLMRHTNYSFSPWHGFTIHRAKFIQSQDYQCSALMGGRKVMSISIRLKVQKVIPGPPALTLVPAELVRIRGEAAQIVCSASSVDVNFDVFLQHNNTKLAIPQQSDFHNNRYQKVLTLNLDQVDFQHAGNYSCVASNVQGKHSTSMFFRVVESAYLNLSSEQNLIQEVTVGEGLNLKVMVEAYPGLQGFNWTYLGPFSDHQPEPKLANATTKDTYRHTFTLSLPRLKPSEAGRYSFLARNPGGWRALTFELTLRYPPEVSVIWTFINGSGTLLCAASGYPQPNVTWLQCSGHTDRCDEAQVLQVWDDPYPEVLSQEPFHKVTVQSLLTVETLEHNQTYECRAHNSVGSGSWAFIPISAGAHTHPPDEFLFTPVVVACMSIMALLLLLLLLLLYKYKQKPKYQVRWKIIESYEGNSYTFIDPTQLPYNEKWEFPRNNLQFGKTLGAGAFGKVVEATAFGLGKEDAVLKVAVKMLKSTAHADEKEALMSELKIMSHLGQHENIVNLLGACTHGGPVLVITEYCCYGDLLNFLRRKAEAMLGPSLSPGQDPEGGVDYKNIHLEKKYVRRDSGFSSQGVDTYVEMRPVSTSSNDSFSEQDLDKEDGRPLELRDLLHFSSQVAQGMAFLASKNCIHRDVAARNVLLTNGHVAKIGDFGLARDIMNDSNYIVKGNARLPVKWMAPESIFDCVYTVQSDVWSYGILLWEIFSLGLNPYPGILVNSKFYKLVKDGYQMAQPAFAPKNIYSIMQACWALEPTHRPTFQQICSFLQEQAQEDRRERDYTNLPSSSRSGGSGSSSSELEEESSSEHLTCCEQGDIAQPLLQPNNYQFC

In the case of C=CC(=O)Nc1cc(C)cc(-n2c(=O)cc(C)c3cnc(Nc4ccc(N5CCN(C)CC5)cc4OC)nc32)c1 [YL143, N‐(3‐(2‐((2‐Methoxy‐4‐(4‐methylpiperazin‐1‐yl)phenyl)amino)‐5‐methyl‐7‐oxopyrido [2,3‐d]pyrimidin‐8(7H)‐yl)‐5‐methylphenyl)acrylamide], the IC50 (EGFR^WT) is reported as 0.185 ± 0.0434 µM, the IC50 (EGFR^L858R) is reported as 0.0491 ± 0.0042 µM and the IC50 [1] is reported as 0.0211 ± 0.0099 µM. The IC50 (BaF3) was greater than 10 µM, the IC50 (AKT1) was greater than 10 µM and the IC50 (CSF1R) was greater than 10 µM. The IC50 (Abl) was greater than 10 µM, the G0/G1 phase fraction (H1975 cells; 300 nmol/L, 48 h) was 82.11% and the “cell cycle arrest and apoptosis” value (H1975 cells; H1975 cells, 30 nmol/L) was “induces G0/G1 phase arrest and apoptosis”. For the same compound, the “effect on EGFR signal pathway” value [2] was “obviously less potent” and the “EGFR^L858R/T790M phosphorylation recovery after withdrawal” value (EGFR^L858R/T790M) was “no EGFR^L858R/T790M phosphorylation recovery was observed”.
